Laboratory results reported in patent US20240327427A1, “NEW COMPOUNDS FOR THE TREATMENT OF ALZHEIMER'S DISEASE” (Icahn School of Medicine at Mount Sinai, priority 2020, published 2024).
Entries after “also recorded” stand apart in the source; their conditions may differ.

Experiments:
ATP6V1A = ATP6V1A mRNA (qRT-PCR) and protein (western blot) levels in hiPSC-derived NGN2 neurons (iNs); assay type: cell-based, human
Description: To verify this discovery, the inventors measured the transcriptional and translational levels of ATP6V1A in D21 iNs treated with the 3 HDAC inhibitors at a series of concentrations between 1 and 30 μM.
CRISPR inhibition (CRISPRi) was used to repress endogenous ATP6V1A in hiPSC-derived NGN2 neurons. […] Next, the inventors investigated whether LQ081-166 rescued the phenotypes of ATP6V1A deficit and reduced neuronal activity.
Quantitative reverse transcription PCR (qRT-PCR) was performed as previously described. Specifically, cell cultures were harvested with Trizol and total RNA extraction was carried out following the manufacturer's instructions. Quantitative transcript analysis was performed using a QuantStudio 7 Flex Real-Time PCR System with the Power SYBR Green RNA-to-Ct Real-Time qPCR Kit (all Thermo Fisher Scientific). Total RNA template (25 ng per reaction) was added to the PCR mix, including primers listed below. qPCR conditions were as follows; 48° C. for 30 min, 95° C. for 10 min followed by 40 cycles (95° C. for 15 s, 60° C. for 60 s). All qPCR data is collected from at least 3 independent biological replicates of one experiment. Data analyses were performed using GraphPad PRISM 6 software.
Cells were rinsed with ice-cold phosphate-buffered saline (PBS), pelleted, and lyzed in RIPA Lysis and Extraction Buffer (Thermo Fisher Scientific, #89900) containing Halt™ Protease and Phosphatase Inhibitor Cocktail (Thermo Fisher Scientific, #78440). Alternatively, MSBB BM36 brain samples were homogenized with similar methods. Samples were sonicated for 1 minute then centrifuged at 13,000× rpm for 10 min. The supernatant was collected, and total protein concentration was determined using Quick Start™ Bradford Protein Assay (Bio-Rad, 5000201) following the manufacturer's instructions.
Images were captured and quantified using the Odyssey® Imaging Systems (LI-COR. Inc.).
(§1) A stock solution of LQ081-166 (molecular weight: 452.63) at 3 mM is prepared in dimethyl sulfoxide (DMSO). Once prepared, aliquot the stock solution into 100 μL amounts and store at −80° C. Avoid repeated freeze-thaw cycles. The stock is diluted 1000× into neuronal medium to obtain 3 μM for assays. After 24-hour treatment, RNA was extracted from cells for quantitative PCR. In the MEA assay, LQ081-166 was added on neuronal differentiation day 14. Replace with medium containing drug or vehicle every 2-3 days until the final recording day.

[1] = tested on: hiPSC-derived NGN2 neurons; assay: Multi-electrode array (MEA) neuronal activity; assay type: cell-based, human; details: 3 μM NCH-51
Description: To evaluate electrical activity of NGN2-neurons by MEA, density-matched isogenic NGN2-neuronal populations, co-cultured with pHAs, were prepared as described above. Specifically, at day 3, pHAs were split as 17,000 cells/well in a Matrigel-coated 48W MEA plate (Axion Biosystems, M768-tMEA-48W) and maintained as above. At day 7, NGN2-neurons were detached, spun down and seeded on the pHA culture. Outer space of each well in the plate was filled up with autoclaved/deionized water to minimize the evaporation of marginal wells (“edge effect”) during long-term culture. Half volume of neuronal medium (supplemented with 2% FBS) was replaced with fresh medium including 200 nM Ara-C from day 9 until the end of MEA recording. Electrical activity of neurons was recorded daily during day 14-24. On the recording day, the plate was loaded into the Axion Maestro MEA reader (Axion Biosystems). Recording was performed via AxiS 2.4 for 10 mins. Quantitative analysis of the recording was exported as a Microsoft excel sheet. Data were analyzed using GraphPad PRISM 6 software.
as §1

[2] = tested on: Vha68-1, Vha68-2 (fly orthologs of ATP6V1A); assay: Vha68-1/Vha68-2 mRNA levels in fly brains after drug feeding; assay type: in vivo, Drosophila; details: fed
Description: Since Vha68-2 decreased more dramatically compared to Vha68-1 in Aβ42 fly brains (FIG. 4Q), an inference was made that NCH-51 treatment counteracts pathological reductions in Vha68-2 levels. […] More than 25 flies for each genotype were collected and frozen. Heads were mechanically isolated, and total RNA was extracted using TRIzol Reagent (Thermo Fisher Scientific) according to the manufacturer's protocol with an additional centrifugation step (16,000×g for 10 min) to remove cuticle membranes prior to the addition of chloroform. Total RNA was reverse-transcribed using PrimeScript RT-PCR kit (TaKaRa Bio), and qRT-PCR was performed using Thunderbird SYBR qPCR Mix (Toyobo) on a CFX96 real time PCR detection system (Bio-Rad Laboratories). The average threshold cycle value was calculated from at least three replicates per sample. Expression of genes of interest was standardized relative to GAPDH1. Primer sequences are provided below. Flies were fed with the food containing 10 μM or 50 μM NCH51 or vehicle (final concentration 0.02% dimethyl sulfoxide) from the day after eclosion. These food vials were changed every 3-4 days.

Aβ42 flies = assay: Neurodegeneration (vacuole area) in Aβ42 fly brains after drug feeding; assay type: in vivo, Drosophila
Description: Aβ42 flies were treated with 0, 10, or 50 μM of NCH-51 during aging to examine its effects on neurodegeneration.
Heads of male flies were fixed in 4% paraformaldehyde for 24 hours at 4° C. and embedded in paraffin. Serial sections (6 μm thickness) through the entire heads were prepared, stained with hematoxylin and eosin (Sigma-Aldrich), and examined by bright-field microscopy. Images of the sections were captured with AxioCam 105 color (Carl Zeiss). To score brain vacuolization, the inventors performed microscopy of serial brain sections within the central neuropil regions and selected the images with the most severe vacuolization from each fly to score area of vacuolization. The inventors selected the section with the most severe neurodegeneration in the same brain area from each individual fly and the area of vacuoles was measured using Image J (NIH). The analyses were performed more than two times and two to three persons were independently involved in these tasks to avoid any bias.
Flies were fed with the food containing 10 μM or 50 μM NCH51 or vehicle (final concentration 0.02% dimethyl sulfoxide) from the day after eclosion. These food vials were changed every 3-4 days.

[3] = Aβ42 flies, 50 μM in food vs 0 μM

CC(C)C(=O)SCCCCCCC(=O)Nc1nc(-c2ccccc2)cs1 [NCH-51]
ATP6V1A mRNA level (ATP6V1A; 3 μM, 24-hr, particularly in ATP6V1A KD iNs, P<0.05): dramatically elevates | transcriptional and translational levels of ATP6V1A (ATP6V1A; D21 iNs, concentrations between 1 and 30 μM): effectively increased ATP6V1A levels | ATP6V1A protein yield (ATP6V1A; iNs, 3 μM): significantly increase the protein yield | ATP6V1A protein level (ATP6V1A; iNs, 3 μM, P<0.05): similarly increased | restoration of neuronal activity (MEA) ([1]; ATP6V1A KD iNs): partially restoring neuronal activity | neuronal activity (MEA spike events) ([1]; iNs): potent activator of neuronal activity | mRNA levels of Vha68-2 ([2]; Aβ42 fly brains, dose-dependent): significantly increased; also recorded: increased mRNA levels of Vha68-2 | mRNA levels of Vha68-1 or Vha68-2 ([2]; control flies): did not increase | neurodegeneration in cell body and central neuropil regions (Aβ42 flies; 21-day-old Aβ42 fly brains): suppressed neurodegeneration | cell loss (cell body region neurodegeneration) (Aβ42 flies; [3]): significantly suppressed | neuropil degeneration (Aβ42 flies; [3]): significantly suppressed
